Experimental data taken from patent US9051304B2, “Carboxamide compounds and their use as calpain inhibitors V” (AbbVie Deutschland GmbH & Co. KG, priority 2009, dated 2015).

Key:
[1] = target: T1, calpain-I isolated from human erythrocytes (Homo sapiens, UniProt P07384); assay: Calpain I enzyme inhibition, kinetic fluorescence assay; format: biochemical; conditions: apparent Ki from IC50 by Cheng-Prussoff; human erythrocyte calpain-I
T1 construct: calpain-I—isolated from human erythrocytes; purchased Calbiochem 208713; host or cells: human erythrocytes (tissue isolate)
T1 sequence (P07384 1-714): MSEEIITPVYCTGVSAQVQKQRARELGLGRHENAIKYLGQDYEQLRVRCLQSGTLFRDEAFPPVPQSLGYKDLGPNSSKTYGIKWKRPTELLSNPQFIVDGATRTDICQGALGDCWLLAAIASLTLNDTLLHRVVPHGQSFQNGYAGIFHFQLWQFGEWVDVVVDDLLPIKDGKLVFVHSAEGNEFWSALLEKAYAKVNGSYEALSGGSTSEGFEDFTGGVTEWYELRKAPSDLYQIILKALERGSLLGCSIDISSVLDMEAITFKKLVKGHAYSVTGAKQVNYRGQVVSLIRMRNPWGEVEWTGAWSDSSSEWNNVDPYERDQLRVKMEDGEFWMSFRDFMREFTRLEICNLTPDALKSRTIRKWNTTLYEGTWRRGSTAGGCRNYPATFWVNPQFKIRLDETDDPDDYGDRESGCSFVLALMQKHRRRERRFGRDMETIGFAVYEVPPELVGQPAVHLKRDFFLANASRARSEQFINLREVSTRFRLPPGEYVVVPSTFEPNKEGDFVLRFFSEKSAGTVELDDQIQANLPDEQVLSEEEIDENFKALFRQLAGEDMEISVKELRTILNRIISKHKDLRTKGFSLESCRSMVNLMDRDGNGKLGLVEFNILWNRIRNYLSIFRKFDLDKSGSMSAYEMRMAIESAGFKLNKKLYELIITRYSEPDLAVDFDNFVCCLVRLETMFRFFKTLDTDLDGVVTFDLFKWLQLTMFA
T1 sequence (P04632 1-268 partner): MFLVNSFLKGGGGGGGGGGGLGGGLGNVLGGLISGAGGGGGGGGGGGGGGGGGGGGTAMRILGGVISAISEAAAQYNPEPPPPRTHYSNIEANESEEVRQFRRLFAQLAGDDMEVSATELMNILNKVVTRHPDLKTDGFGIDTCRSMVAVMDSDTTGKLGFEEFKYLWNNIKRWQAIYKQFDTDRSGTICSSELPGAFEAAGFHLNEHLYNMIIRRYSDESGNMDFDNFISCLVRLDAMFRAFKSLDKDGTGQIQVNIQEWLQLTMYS
Protocol: (§1) I Enzyme Inhibition in vitro:
(§2) Testing for blockade of the corresponding enzymic activities was carried out by means of kinetic fluorescence assays (excitation 390 nm, emission 460 nm).
(§3) Apparent Ki values were calculated from the experimentally determined IC50 values by the Cheng-Prussoff relation assuming a reversible competitive enzyme inhibition.
20 nM calpain-I—isolated from human erythrocytes (Calbiochem #208713), 100 μM Suc-Leu-Tyr-AMC (Bachem #I-1355) as substrate in buffer with 62 mM imidazole, 0.3 mM CaCl2, 0.10% CHAPS, 0.05% BSA, 1 mM DTT at pH 7.3 and room temperature.

[2] = target: T2, cathepsin B isolated from human liver (Homo sapiens, UniProt P07858); assay: Cathepsin B enzyme inhibition, kinetic fluorescence assay; format: biochemical; conditions: selectivity ratio vs calpain
T2 construct: cathepsin B—isolated from human liver; purchased Calbiochem 219362; host or cells: human liver (tissue isolate)
Protocol: as §1, §2, §3
0.25 nM cathepsin B—isolated from human liver (Calbiochem #219362), 100 μM Z-Phe-Arg-AMC (Bachem #I-1160) as substrate 50 mM MES, 2 mM EDTA, 0.05% Brij 35, 2.5 mM L-cysteine, pH 6.0, room temperature.

[3] = target: T3, cathepsin K activated from recombinant human procathepsin K (Homo sapiens, UniProt P43235); assay: Cathepsin K enzyme inhibition, kinetic fluorescence assay; format: biochemical; conditions: selectivity ratio vs calpain
T3 construct: purchased Calbiochem 342001; host or cells: E. coli
T3 sequence (P43235 115-329): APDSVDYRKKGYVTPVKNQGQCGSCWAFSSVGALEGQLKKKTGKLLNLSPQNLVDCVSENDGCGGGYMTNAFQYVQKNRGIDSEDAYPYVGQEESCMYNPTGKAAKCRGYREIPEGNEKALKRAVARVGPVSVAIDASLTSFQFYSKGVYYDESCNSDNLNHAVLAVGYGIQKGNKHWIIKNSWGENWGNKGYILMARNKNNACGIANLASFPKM
Protocol: as §1, §2, §3
3 nM cathepsin K—activated from recombinant human procathepsin K from E. coli (Calbiochem #342001), 10 μM Z-Gly-Pro-Arg-AMC (Biomol #P-142) as substrate in 50 mM MES, 2 mM EDTA, 0.05% Brij 35, 2.5 mM L-cysteine, pH 6.0, room temperature.

[4] = target: T4, cathepsin L isolated from human liver (Homo sapiens, UniProt P07711); assay: Cathepsin L enzyme inhibition, kinetic fluorescence assay; format: biochemical; conditions: selectivity ratio vs calpain
T4 construct: cathepsin L—isolated from human liver; purchased Calbiochem 219402; host or cells: human liver (tissue isolate)
Protocol: as §1, §2, §3
1 nM cathepsin L—isolated from human liver (Calbiochem #219402), 2 μM Z-Phe-Arg-AMC (Bachem #I-1160) as substrate in 50 mM MES, 2 mM EDTA, 0.05% Brij 35, 2.5 mM L-cysteine, pH 6.0, room temperature.

[5] = target: T5, recombinant human cathepsin S (Homo sapiens, UniProt P25774); assay: Cathepsin S enzyme inhibition, kinetic fluorescence assay; format: biochemical; conditions: selectivity ratio vs calpain
T5 construct: purchased Calbiochem 219343; host or cells: E. coli
Protocol: as §1, §2, §3
0.5 nM recombinant human cathepsin S from E. coli (Calbiochem #219343), 20 μM Z-Val-Val-Arg-AMC (Bachem #I-1540) as substrate in 50 mM MES, 2 mM EDTA, 0.05% Brij 35, 2.5 mM L-cysteine, pH 6.0, room temperature.

[6] = Cytosolic clearance in human liver cytosol; format: in vitro ADME; conditions: 0.5 μM compound, 1 mg/ml human liver cytosol, 37° C., pH 7.5; read-out: human cytCL (cytosolic clearance)
Protocol: (§4) III Assay for Determining Cytosolic Clearance of Compounds of Formula I: […]
(§5) For comparison purposes data measured with human liver cytosol were contrasted with those obtained with cynomolgus monkey liver cytosol.
(§6) 0.5 μM of a compound to be tested was incubated with 1 mg/ml of human liver cytosol as well as monkey liver cytosol at 37° C. in 0.5 M of phosphate buffer at pH 7.5 while shaking (commercial sources: female cynomolgus liver cytosol from Tebu bio, human liver cytosol from BDgentest).
(§7) In each case aliquots of 65 μl were taken after 0, 5, 10 and 15 min and transferred into wells of a wellplate which were immediately filled with 130 μl of ethanol to stop the reaction. The samples were kept frozen until analysis on a LC/MS/MS system (Applied Biosystems SCIEX 4000).
(§8) Read out parameters were the loss of parent compounds, from which the half life periods (T1/2) were calculated from.
(§9) To assess the stability of the compounds tested the clearance ranges were adjusted to the hepatic plasma flow of the different species according to the following scheme:
(§10) stable=from 0 to about ⅓ of the hepatic plasma flow;
(§11) moderately stable=from about ⅓ to about ⅔ of the hepatic plasma flow;
(§12) instable=more than ⅔ of the hepatic plasma flow.
(§13) Based on this adjustment the following qualifiers were assigned to evaluate the cytosolic stabilities of the compounds tested: […]

[7] = Cytosolic clearance in cynomolgus monkey liver cytosol; format: in vitro ADME; conditions: female; 0.5 μM compound, 1 mg/ml cynomolgus monkey liver cytosol, 37° C., pH 7.5; read-out: cyno cytCL (cytosolic clearance)
Protocol: as §4, §5, §6, §7, §8, §9, §10, §11, §12, §13

T4 sequence (P07711 114-333): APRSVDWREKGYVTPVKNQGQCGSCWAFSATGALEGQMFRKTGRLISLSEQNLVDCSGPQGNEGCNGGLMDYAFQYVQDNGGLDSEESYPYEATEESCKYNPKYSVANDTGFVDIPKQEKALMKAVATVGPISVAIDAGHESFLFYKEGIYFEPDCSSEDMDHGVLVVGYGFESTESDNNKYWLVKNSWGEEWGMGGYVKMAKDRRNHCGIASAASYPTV
T5 sequence (P25774 115-331): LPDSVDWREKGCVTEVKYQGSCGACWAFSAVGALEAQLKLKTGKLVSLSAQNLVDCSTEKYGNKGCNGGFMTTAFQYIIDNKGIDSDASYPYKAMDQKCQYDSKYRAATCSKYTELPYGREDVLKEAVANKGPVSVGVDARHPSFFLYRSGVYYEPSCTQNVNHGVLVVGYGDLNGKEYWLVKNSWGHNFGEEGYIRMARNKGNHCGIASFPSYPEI

Structure (SMILES)	Ki [1] [nM]	cytosolic intrinsic clearance at 0.5 μM [6] [µL/min/mg]	cytosolic intrinsic clearance at 0.5 μM [7] [µL/min/mg]	Calpain activity (Ki(calpain)) [1]	Sel cat. B (Ki(cathepsin B)/Ki(calpain) ratio) [2]	Sel cat. K (Ki(cathepsin K)/Ki(calpain) ratio) [3]	Sel cat. L (Ki(cathepsin L)/Ki(calpain) ratio) [4]	Sel cat. S (Ki(cathepsin S)/Ki(calpain) ratio) [5]
CCONC(=O)C(=O)C(Cc1ccccc1)NC(=O)c1cccnc1-n1ccc(-c2ccccc2)n1 (centres unmarked) [Example 7, N-(4-(Ethoxyamino)-3,4-dioxo-1-phenylbutan-2-yl)-2-(3-phenyl-1H-pyrazol-1-yl)nicotinamide]	< 200	< 14	< 18	–	++ (++ means 4<Ki(cathepsin B)/Ki(calpain)≦10)	+ (+ means 2≦Ki(cathepsin K)/Ki(calpain)≦4)	++ (++ means 10<Ki(cathepsin L)/Ki(calpain)≦50)	+++ (+++ means a Ki(cathepsin S)/Ki(calpain) ratio of >50)
CCONC(=O)C(=O)C(Cc1ccc(OC)cc1)NC(=O)c1cccnc1-n1ccc(-c2ccccc2)n1 (centres unmarked) [Example 24, N-[4-(Ethoxyamino)-1-(4-methoxyphenyl)-3,4-dioxo-2-butanyl]-2-(3-phenyl-1H-pyrazol-1-yl)nicotinamid]	< 200	–	–	–	++ (++ means 4<Ki(cathepsin B)/Ki(calpain)≦10)	+ (+ means 2≦Ki(cathepsin K)/Ki(calpain)≦4)	++ (++ means 10<Ki(cathepsin L)/Ki(calpain)≦50)	++ (++ means 10<Ki(cathepsin S)/Ki(calpain)≦50)
CCONC(=O)C(=O)C(Cc1ccccc1)NC(=O)[C@H]1CCC(=O)N1Cc1ccccc1 (stereo partly drawn) [Example 29, (2R)-1-benzyl-N-(4-(ethoxyamino)-3,4-dioxo-1-phenylbutan-2-yl)-5-oxopyrrolidine-2-carboxamide]	–	–	–	∘	+++ (+++ means a Ki(cathepsin B)/Ki(calpain) ratio of >10)	++ (++ means 4<Ki(cathepsin K)/Ki(calpain)≦10)	++ (++ means 10<Ki(cathepsin L)/Ki(calpain)≦50)	++ (++ means 10<Ki(cathepsin S)/Ki(calpain)≦50)
O=C(NOCC1CC1)C(=O)C(Cc1ccccc1)NC(=O)[C@H]1CCC(=O)N1Cc1ccccc1 (stereo partly drawn) [Example 31, (2R)-1-benzyl-N-(4-(cyclopropylmethoxyamino)-3,4-dioxo-1-phenylbutan-2-yl)-5-oxopyrrolidine-2-carboxamide]	< 200	–	–	–	+ (+ means 2≦Ki(cathepsin B)/Ki(calpain)≦4)	∘	∘	++ (++ means 10<Ki(cathepsin S)/Ki(calpain)≦50)

Continued, in another order:

Ki [1] [nM]	cytosolic intrinsic clearance at 0.5 μM [6] [µL/min/mg]	cytosolic intrinsic clearance at 0.5 μM [7] [µL/min/mg]	Calpain activity (Ki(calpain)) [1]	Structure (SMILES)	Sel cat. B (Ki(cathepsin B)/Ki(calpain) ratio) [2]	Sel cat. K (Ki(cathepsin K)/Ki(calpain) ratio) [3]	Sel cat. L (Ki(cathepsin L)/Ki(calpain) ratio) [4]	Sel cat. S (Ki(cathepsin S)/Ki(calpain) ratio) [5]
300 to 600	–	–	–	CC(C)(C)ONC(=O)C(=O)C(Cc1ccccc1)NC(=O)c1cccnc1-n1ccc(-c2ccccc2)n1 (centres unmarked) [Example 16, N-(4-{[(2-Methyl-2-propanyl)oxy]amino}-3,4-dioxo-1-phenyl-2-butanyl)-2-(3-phenyl-1H-pyrazol-1-yl)nicotinamide]	+++ (+++ means a Ki(cathepsin B)/Ki(calpain) ratio of >10)	∘	+ (+ means 5≦Ki(cathepsin L)/Ki(calpain)≦10)	++ (++ means 10<Ki(cathepsin S)/Ki(calpain)≦50)
200 to 300	–	–	–	CC(C)(C)CONC(=O)C(=O)C(Cc1ccccc1)NC(=O)c1cccnc1-n1ccc(-c2ccccc2)n1 (centres unmarked) [Example 21, N-{4-[(2,2-Dimethylpropoxy)amino]-3,4-dioxo-1-phenyl-2-butanyl}-2-(3-phenyl-1H-pyrazol-1-yl)nicotinamide]	+ (+ means 2≦Ki(cathepsin B)/Ki(calpain)≦4)	∘	∘	+ (+ means 5≦Ki(cathepsin S)/Ki(calpain)≦10)
